Assay [1] deals with kappa opioid receptor (Homo sapiens, UniProt P41145). The assay can be described thus: Filtration binding assay: kappa opioid receptor.
The target of assay [2] is mu opioid receptor (Homo sapiens, UniProt P35372). The assay can be described thus: Filtration binding assay: mu opioid receptor.

As a reminder, the IC50 is the concentration at which inhibition is half-maximal. The low end stands for greater potency, the high end for weaker potency. Broadly, the Ki is a dissociation constant, usually derived from enzyme kinetics or from competition with a known ligand.

Sequence of mu opioid receptor (P35372 whole entry): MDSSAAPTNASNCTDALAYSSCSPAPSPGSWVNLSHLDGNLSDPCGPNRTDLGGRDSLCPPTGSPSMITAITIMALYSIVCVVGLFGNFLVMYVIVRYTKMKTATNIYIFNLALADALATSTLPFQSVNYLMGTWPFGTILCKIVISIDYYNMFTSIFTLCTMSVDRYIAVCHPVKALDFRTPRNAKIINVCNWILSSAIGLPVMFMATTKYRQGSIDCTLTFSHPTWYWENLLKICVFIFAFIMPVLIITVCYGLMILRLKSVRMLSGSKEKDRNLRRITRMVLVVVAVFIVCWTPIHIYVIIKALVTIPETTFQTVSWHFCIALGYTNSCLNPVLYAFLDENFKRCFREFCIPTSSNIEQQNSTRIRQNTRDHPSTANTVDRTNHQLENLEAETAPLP
Sequence of kappa opioid receptor (P41145 whole entry): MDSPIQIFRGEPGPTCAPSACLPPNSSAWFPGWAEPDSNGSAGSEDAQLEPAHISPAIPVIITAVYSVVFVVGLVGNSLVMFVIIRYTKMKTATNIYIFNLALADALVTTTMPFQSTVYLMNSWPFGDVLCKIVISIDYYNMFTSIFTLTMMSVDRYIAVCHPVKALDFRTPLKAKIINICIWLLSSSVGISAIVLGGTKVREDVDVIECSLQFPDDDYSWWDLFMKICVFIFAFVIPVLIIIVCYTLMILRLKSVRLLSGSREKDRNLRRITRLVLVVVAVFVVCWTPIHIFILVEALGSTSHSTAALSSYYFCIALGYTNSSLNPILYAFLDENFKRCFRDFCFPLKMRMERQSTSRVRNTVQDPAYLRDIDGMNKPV

Consider `COc1ccc(CNC[C@H](O)CN2CN(c3ccc(F)cc3)C3(CCN(C4Cc5cccc6cccc4c56)CC3)C2=O)cc1OC` (mixture of isomers) [compound 307], for which the IC50 in assay [1] was determined as 210 nM; in assay [2] it was 750 nM.

Turning to `O=C1N(C[C@@H](O)CN(CCc2ccccc2)Cc2ccccc2)CN(c2ccc(F)cc2)C12CCN(C1Cc3cccc4cccc1c34)CC2` (mixture of isomers) [compound 313], the concentration for half-maximal inhibition (IC50) came to 500 nM in assay [1] and 330 nM in assay [2].

For the compound `O=C1N(C[C@@H](O)CNCc2cc(C(F)(F)F)cc(C(F)(F)F)c2)CN(c2ccc(F)cc2)C12CCN(C1Cc3cccc4cccc1c34)CC2` (mixture of isomers) [compound 319], the IC50 in assay [1] was found to be 580 nM; in assay [2] it was 320 nM.

In the case of `COc1cc(CNC[C@H](O)CN2CN(c3ccc(F)cc3)C3(CCN(C4Cc5cccc6cccc4c56)CC3)C2=O)cc(OC)c1OC` (mixture of isomers) [compound 320], the values for the half-inhibitory concentration (IC50) in assay [1] and in assay [2] were 120 nM and 340 nM, respectively.

The compound `CNC[C@@H](O)CN1CN(c2ccc(F)cc2)C2(CCN(Cc3cccc4cccc(C)c34)CC2)C1=O` [Compound #660, 1-(4-Fluoro-phenyl)-3-(2-(R)-hydroxy-3-methylamino-propyl)-8-(8-methyl-naphthalen-1-ylmethyl)-1,3,8-triaza-spiro[4.5]decan-4-one] returned a Ki in assay [2] of 870 nM.

With `O=C1N(C[C@@H](O)CN2C=CCC2)CN(c2ccc(F)cc2)C12CCN(CC1CCCCCCC1)CC2` [compound 70], the IC50 in assay [2] came out at 630 nM. In other words, the sub-micromolar range.

As to `CN(C)c1ccc(CNC[C@@H](O)CN2CN(c3ccccc3)C3(CCN(CCc4ccccc4-c4cccs4)CC3)C2=O)cc1` [compound 139], the IC50 in assay [2] stood at 103 nM.

In assay [2], `O=C1N(C[C@H](O)CNCCc2cc3ccc(F)cc3[nH]2)CN(c2ccccc2)C12CCN(CCc1ccccc1-c1cccs1)CC2` [compound 142] came in with an IC50 of 104 nM.

`COc1ccc(CCNC[C@@H](O)CN2CN(c3ccccc3)C3(CCN(CCc4ccccc4-c4cccs4)CC3)C2=O)cc1` [compound 145] registered an IC50 in assay [2] of 104 nM. This counts as sub-micromolar.

Take `O=C1N(C[C@@H](O)CN(CCc2ccccc2)Cc2ccccc2)CN(c2ccccc2)C12CCN(CCc1ccccc1-c1cccs1)CC2` [compound 230]: the concentration for half-maximal inhibition (IC50) in assay [2] stood at 152 nM.

Compound `O=C1N(C[C@@H](O)CNCCN2CCOCC2)CN(c2ccc(F)cc2)C12CCN(Cc1ccc3ccccc3c1)CC2` [compound 259] yielded an IC50 in assay [2] of 500 nM. This IC50 is about 3.3-fold higher than that of the compound before.

`O=C1N(C[C@@H](O)CNCCc2ccc3c(c2)OCO3)CN(c2ccc(F)cc2)C12CCN(Cc1ccc3ccccc3c1)CC2` [compound 262] gave an IC50 in assay [2] of 850 nM.

On to `COc1ccc(CCN(C)C[C@H](O)CN2CN(c3ccc(F)cc3)C3(CCN(Cc4ccc5ccccc5c4)CC3)C2=O)cc1OC` [compound 263], for which the IC50 in assay [2] was 590 nM. The IC50 values of the last two compounds are within 1.5-fold of each other.

`O=C1N(C[C@H](O)CNCCc2ccc3c(c2)OCO3)CN(c2ccc(F)cc2)C12CCN(Cc1ccc(Cl)cc1)CC2` [compound 268] displayed an IC50 in assay [2] of 950 nM.

Compound `COc1cc(CCNC[C@@H](O)CN2CN(c3ccc(F)cc3)C3(CCN(Cc4ccc(Cl)cc4)CC3)C2=O)c([N+](=O)[O-])cc1OC` [compound 269] displayed an IC50 in assay [2] of 2490 nM.

Compound `COc1ccc(CCN(C)C[C@H](O)CN2CN(c3ccc(F)cc3)C3(CCN(Cc4ccc(Cl)cc4)CC3)C2=O)cc1OC` [compound 270] gave an IC50 in assay [2] of 410 nM. Against the preceding compound, the IC50 is about 6.1-fold lower.

In assay [2], `O=C1N(C[C@@H](O)CN(Cc2ccccc2)C[C@@H]2CCCC[C@@H]2O)CN(c2ccc(F)cc2)C12CCN(CC1CCCCCCC1)CC2` [compound 290] displayed an IC50 of 930 nM. Compared with the last compound, the IC50 is about 2.3-fold higher.

Turning to `CNCCNC[C@@H](O)CN1CN(c2ccc(F)cc2)C2(CCN(Cc3cccc4cccc(C)c34)CC2)C1=O` [compound 661], the Ki in assay [2] was found to be 800 nM.

`Cc1cccc2cccc(CN3CCC4(CC3)C(=O)N(C[C@H](O)CN3CC[C@@H](N(C)C)C3)CN4c3ccc(F)cc3)c12` [compound 708] returned a Ki in assay [2] of 490 nM.

`Cc1cccc2cccc(CN3CCC4(CC3)C(=O)N(C[C@H](O)CN3CCC(O)C3)CN4c3ccc(F)cc3)c12` (stereo partly drawn) [compound 712] showed a Ki in assay [2] of 1950 nM.
